Reference: US20150038435A1, “N-TERMINALLY MODIFIED OLIGOPEPTIDES AND USES THEREOF” (Novo Nordisk A/S, priority 2012, published 2015)
Non-standard residues stand in square brackets, D forms with d. Residues, ends and D or L forms follow the SMILES beside them. *: point of attachment. Lauroyl = CCCCCCCCCCCC(=O)*

Assay: Rat PK following intraintestinal injection
Type: in vivo
Conditions: of insulin, 60 nmol/kg intraintestinal, Composition 3: 3% compound, propylene glycol, diglycerol caprylate, Tween 20
Experimental: Anaesthetized rats were dosed intraintestinally (into jejunum) with reference compounds and N-terminally acylated peptide or oligopeptides of the invention. Plasma concentrations of the employed compounds as well as changes in blood glucose were measured at specified intervals for 4 hours or more post-dosing. Pharmacokinetic parameters were subsequently calculated using WinNonLin Professional (Pharsight Inc., Mountain View, Calif., USA).
The compositions for the intraintestinal injection model were prepared for example according to the following composition (in weight %):
The anesthetized rat was placed on a homeothermic blanket stabilized at 37° C. A 20 cm polyethylene catheter mounted a 1-ml syringe was filled with insulin composition or vehicle. A 4-5 cm midline incision was made in the abdominal wall. […]
Blood samples for the determination of whole blood glucose concentrations were collected in heparinised 10 μl capillary tubes by puncture of the capillary vessels in the tail tip. Blood glucose concentrations were measured after dilution in 500 μl analysis buffer by the glucose oxidase method using a Biosen autoanalyzer (EKF Diagnostic Gmbh, Germany). […]
Samples were collected for determination of the plasma insulin concentration. […] Plasma concentrations of the insulin analogues were measured in a immunoassay. […]

- Bioavailability: 4.5 ± 2.7%
SMILES: CCCCCCCCCCCC(=O)N[C@H](C)C(=O)N[C@H](C)C(=O)N1CCC[C@@H]1C(=O)N[C@H](Cc1ccccc1)C(=O)O [Example 1, N-dodecanoyl-DAla-DAla-DPro-DPhe-OH] (Lauroyl-[dA][dA][dP][dF]-OH)
